Test results reported in US20210369812A1, “OSTEOINDUCTIVE PEPTIDES, COMPOSITIONS, IMPLANTS, AND METHODS OF USE” (The Board of Regents of the University of Oklahoma, priority 2018, published 2021).

How the values were obtained:
[1] = tested on: rat radial bone defect model; test: Histological staining (HE, Von Kossa) of implanted scaffolds; format: in vivo; conditions: 4-week implants
Source text: After 4 weeks and 12 weeks, animals (N=5) were euthanized by CO2 asphyxiation. The sections of the arms containing the implant (at the radius bone) were then cut way from the rest of the animal using bone cutters. The 4-week implant samples were fixed in 10% (w/v) neutral formalin solution for 4 days. The 12-week samples were fixed in 4% paraformaldehyde for 4 days. Paraformaldehyde was used as it can produce better CD31 vascularization stains relative to fixing with formalin. The samples were then placed in a solution of 70% ethanol to 30% water (v/v).
The tissue sections were deparaffinized and hydrated with distilled water. Hematoxylin was applied to the sample with enough volume to cover the tissue section followed by incubation for 5 min. The mounted tissue slide was then rinsed in 2 changes of distilled water (sections were allowed to soak for 15 sec on each exchange of water). Enough Bluing Reagent was then added to the tissue section to completely cover it followed by incubation for 10-15 sec. The slides were then rinsed again in 2 changes of distilled water allowing 15 sec of contact with the water each time. The slides were then dipped in 100% ethanol for 10 sec. The excess ethanol was blotted off. Enough Eosin Y Solution was then added to completely cover the tissue section followed by incubation for 2-3 min. The slides were then rinsed in 100% ethanol for 10 sec. […]

[2] = tested on: rat radial bone defect model; test: Rat radial bone defect model, Micro-CT; format: in vivo; conditions: phage-coated titanium scaffold seeded with hMSCs; 4 weeks
Protocol: The titanium alloy scaffolds were rinsed 3 times in distilled water followed by autoclaving. The scaffolds were then coated in poly-L-lysine by soaking in 2.5 ml of poly-L-lysine per 5 scaffolds in a 24-well cell culture plate for 30 minutes. The poly-L-lysine was then discarded, and the scaffolds were allowed to dry in a sterile hood overnight. In a sterile cell culture hood, 2 scaffolds were loaded into the sterile freeze casting holder (sterilized by autoclaving). 2 ml of sterile, filtered phage solution (3×10^13 phages/ml) was pipetted into the casting holder and directly into the pores of the titanium scaffolds. The solution was allowed to incubate at room temperature for 30 minutes so that phages could stick better to the scaffold. The scaffolds and phage solution were then freeze casted in the double-sided freeze casting machine with a temperature drop of 3° C./min on the lower contact point and a constant 0° C. on the upper contact point. The final temperature for the lower contact point was −135° C. The frozen scaffold and solution were then freeze dried overnight. For cell seeding, the scaffold was then soaked overnight in cell medium followed by seeding 3.6×10^4 hMSCs onto the scaffold the next day in new medium. After 1 day of culturing, the scaffolds were implanted into the rat radial bone defect model. […]

## VHVPLHRGAVSA (Completely synthesized in the lab - Ph.D.-12 Phage Display Peptide Library Kit (New England Biolabs))
[1]
  New bone tissue / calcium deposits (Von Kossa stain): New bone tissue was observed to be best
[2]
  Healing of bone defect (Micro-CT): Increased healing was best observed
